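Compound exposure: 48 hours, 5 concentrations, 96-well plates. The concentration for 50% growth inhibition is given as GI50. TGI: total growth inhibition.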
Assays:
Assay in all cases: inhibition of tumour cell growth, NCI panel, 48 h
NCI-H23 lung = test system: NCI-H23 lung
786-0 renal = test system: 786-0 renal
M14 melanoma = test system: M14 melanoma
SNB-75 CNS = test system: SNB-75 CNS
HOP-62 NSCLC = test system: HOP-62 NSCLC
SK-MEL-5 melanoma = test system: SK-MEL-5 melanoma
RPMI-8226 leukemia = test system: RPMI-8226 leukemia
A498 renal = test system: A498 renal
UACC-62 melanoma = test system: UACC-62 melanoma
SF-539 CNS = test system: SF-539 CNS
HT29 colon = test system: HT29 colon
MOLT-4 leukemia = test system: MOLT-4 leukemia
MDA-MB-231 breast = test system: MDA-MB-231 breast
MCF7 breast = test system: MCF7 breast
SN12C renal = test system: SN12C renal
RXF 393 renal = test system: RXF 393 renal
CCRF-CEM leukemia = test system: CCRF-CEM leukemia
PC-3 prostate = test system: PC-3 prostate
TK-10 renal = test system: TK-10 renal
OVCAR-3 ovarian = test system: OVCAR-3 ovarian
UACC-257 melanoma = test system: UACC-257 melanoma
ACHN renal = test system: ACHN renal
SK-MEL-28 melanoma = test system: SK-MEL-28 melanoma
SK-OV-3 ovarian = test system: SK-OV-3 ovarian
K-562 leukemia = test system: K-562 leukemia
COLO 205 colon = test system: COLO 205 colon
LOX IMVI melanoma = test system: LOX IMVI melanoma
HS 578T breast = test system: HS 578T breast
HL-60(TB) leukemia = test system: HL-60(TB) leukemia

SMILES: OCc1[nH]nc2cc(Nc3ncc4ccc(Br)c(OC5CCC(O)CC5)c4n3)ccc12 (configuration not stated)
- GI50 (NCI-H23 lung): 40.2 nM
- TGI (NCI-H23 lung): 257 nM
- GI50 (786-0 renal): 37.1 nM
- TGI (786-0 renal): 2700 nM
- GI50 (M14 melanoma): 45 nM
- TGI (M14 melanoma): 1740 nM
- GI50 (SNB-75 CNS): 35.9 nM
- TGI (SNB-75 CNS): 296 nM
- GI50 (HOP-62 NSCLC): 34 nM
- TGI (HOP-62 NSCLC): 22800 nM
- GI50 (SK-MEL-5 melanoma): 27 nM
- TGI (SK-MEL-5 melanoma): 428 nM
- GI50 (RPMI-8226 leukemia): 276 nM
- TGI (RPMI-8226 leukemia): > 100000 nM
- GI50 (A498 renal): 49.5 nM
- TGI (A498 renal): 231 nM
- GI50 (UACC-62 melanoma): 35.9 nM
- TGI (UACC-62 melanoma): 379 nM
- GI50 (SF-539 CNS): 22.5 nM
- TGI (SF-539 CNS): 69.6 nM
- GI50 (HT29 colon): 103 nM
- TGI (HT29 colon): 487 nM
- GI50 (MOLT-4 leukemia): 37.2 nM
- TGI (MOLT-4 leukemia): > 100000 nM
- GI50 (MDA-MB-231 breast): 30.1 nM
- TGI (MDA-MB-231 breast): 505 nM
- GI50 (MCF7 breast): 19.9 nM
- TGI (MCF7 breast): 1100 nM
- GI50 (SN12C renal): 35 nM
- TGI (SN12C renal): 20000 nM
- GI50 (RXF 393 renal): 19.3 nM
- TGI (RXF 393 renal): 46.7 nM
- GI50 (CCRF-CEM leukemia): 31.4 nM
- TGI (CCRF-CEM leukemia): > 100000 nM
- GI50 (PC-3 prostate): 50.2 nM
- TGI (PC-3 prostate): > 100000 nM
- GI50 (TK-10 renal): 78.7 nM
- TGI (TK-10 renal): 729 nM
- GI50 (OVCAR-3 ovarian): 25.6 nM
- TGI (OVCAR-3 ovarian): 171 nM
- GI50 (UACC-257 melanoma): 234 nM
- TGI (UACC-257 melanoma): 9780 nM
- GI50 (ACHN renal): 23.1 nM
- GI50 (SK-MEL-28 melanoma): 49.9 nM
- TGI (SK-MEL-28 melanoma): 963 nM
- GI50 (SK-OV-3 ovarian): 376 nM
- TGI (SK-OV-3 ovarian): > 100000 nM
- GI50 (K-562 leukemia): 78.8 nM
- TGI (K-562 leukemia): > 100000 nM
- GI50 (COLO 205 colon): 31.7 nM
- TGI (COLO 205 colon): 145 nM
- GI50 (LOX IMVI melanoma): 16.4 nM
- TGI (LOX IMVI melanoma): 59.2 nM
- GI50 (HS 578T breast): 44.4 nM
- TGI (HS 578T breast): 1850 nM
- GI50 (HL-60(TB) leukemia): 14.7 nM
- TGI (HL-60(TB) leukemia): 105 nM

Source: PubChem BioAssay (NCI)
